Results as given in patent publication US20240002405A1, “ANTIMICROBIAL COMPOUNDS, SYNTHESIS METHODS, AND USES THEREOF” (Ankh Life Sciences Limited, priority 2022, published 2024).
Converted amounts (≈) assume the structure as drawn. “And” between values parts separate entries of the source, which are not always exact repeats. Equal values may be shown once. Read-outs that look alike come from different tables or passages of the source.

Assays:
[1] = test system: S. aureus (ATCC 29213); assay: Minimum bactericidal concentration (MBC) assay, S. aureus; assay type: cell-based; settings: Staphylococcus aureus, S. aureus
Method: (§1) (f) Determination of MBC: MBC was determined by sampling all the macroscopically clear wells. Before sampling, the wells were gently mixed by flushing them with a pipette, and a 5 μL was removed and placed on an agar plate suitable for the growth of the microbe being tested. The agar plate was divided into three parts to test three trials of a single concentration. The sample was allowed to be absorbed into the agar for ˜30 minutes. The plates were then incubated for 24 hours at 37° C. After incubation, the plates were examined to determine the compound concentration at which 99.9% killing was achieved.

[2] = test system: MRSA (ATCC 43300); assay: Minimum bactericidal concentration (MBC) assay, MRSA; assay type: cell-based; settings: Staphylococcus aureus, MRSA
Method: as §1

[3] = test system: Candida albicans (ATCC 18804); assay: Antifungal broth microdilution MIC assay; assay type: cell-based; settings: for MIC: Candida albicans, ATCC18804, C. albicans, read-out: MIC (antifungal growth inhibition)
Method: Synthesized compounds were tested for antifungal activity towards the fungus strain, Candida albicans. […] Different concentrations of the compounds were tested for the exact same number of fungi, and the growth is monitored with time. MIC was determined by using the broth microdilution assay. Fungus strain, C. albicans was purchased from ATCC (ID: 18804) for the studies. […] This solution was used to make a working solution by preparing a 1:50 dilution, followed by a 1:20 dilution, with RPMI 1640 medium to obtain 2× test inoculum. The 2× inoculum is diluted 1:1 to achieve the final inoculum size (0.5×10^3 to 2.5×10^3 cells per mL). RPMI 1640 medium was used with L-glutamine and phenol red as a pH indicator but without bicarbonate and a glucose concentration of 0.2%. […] All plates were then read visually under normal laboratory lighting using a mirror viewer. Wells were scored for the growth compared to that of the drug free control well. Plates were read at 530 nm with subtraction of the blank from the reading of each well. Turbidity (OD) increases as the fungus grows over time.

[4] = Solubility in DMSO; assay type: physicochemical
[5] = test system: gram positive and negative bacteria; assay: Antibacterial testing against gram positive and negative bacteria; assay type: cell-based
Method: In addition to the harmaline dimers compounds, other bicyclic indole compounds (203, 233, 476/6 and 504/6,) were also tested against gram positive and negative bacteria. Particularly, the indole ethyl urea molecules 203, 233 and the tryptamide dimer molecules 476/6, 504/6, as shown below, were tested.

[6] = test system: MRSA: S. aureus resistant to methicillin and oxacillin (ATCC 43300); assay: Broth microdilution MIC assay, MRSA; settings: Staphylococcus aureus, ATCC43300|MRSA, read-out: MIC (bacterial growth inhibition)
Method: (§2) The concentration of compound required to visibly stop the growth of bacteria is known as minimum inhibitory concentration (MIC). Different concentrations of the compounds are tested for the exact same number of bacteria, and the growth is monitored with time.
(§3) Bacterial strains were purchased from the American Type Culture Collection (ATCC) for the studies.
(§4) The MIC assay procedure follows the guidelines set by the Clinical Laboratory Sciences Institute (CLSI).
(§5) To do this, bacteria were transferred from pure agar culture, aseptically transferred in 5 mL of Cation-Adjusted Mueller-Hinton Broth (CAMHB). The broth was incubated overnight at 35° C. to stationary phase to achieve a turbidity suspension. A spectrophotometer (SpectraMax ID5) was used to measure the turbidity (optical density—OD at 625 nm). The inoculum was prepared by adjusting the turbidity of overnight culture to 0.5 McFarland, which is equal to the defined number of bacteria 1×10^8 CFU/ml.
(§6) (b) Compound Dilution: All compounds used in the study were dissolved in sterile ultra-pure DMSO (VWR International, PA, USA) and maintained at −80° C. Stock solution of the compound was freshly prepared the day of use or is prepared from a frozen stock solution stored at −80° C. […] The compound solution was prepared at a desired concentration in DMSO, and 1/10 dilution was performed in a sterile CAMHB medium. This 10-fold dilution of stock solution was used for a 2-fold serial dilution in a 96-well plate to observe an inhibitory effect of the compound on bacterial growth. 100 μL of diluted drug solution was transferred to a first column of the 96-well plate. 50 μL of sterile CAMHB was transferred to each well from well 2 to well 12. Next, 50 μL was removed from well 1 and added to well 2. The contents from well 2 were mixed by pipetting up and down. Next, 50 µL were removed from well 2 and added to well 3. This process was continued till well 11 is reached. 50 μL was discarded from the well 11. Each compound concentration was tested in triplicate.
(§7) (c) Inoculation of 96-well plate: The same number of bacteria (1×10^5 CFU/mL) were prepared after 150-fold dilution of 0.5 McFarland inoculum and used to add in the wells of different drug concentrations. 50 μL of working inoculum was carefully added to each well, except the sterility well 12. Mixing is performed by gently flushing the inoculum in and out of the pipette tip four or five times, avoiding splashing and bubble formation.
(§8) (d) Incubation: Plates were incubated at 35° C. for 24 hours without shaking or agitation.
(§9) (e) Determination of MIC: After 18-24 hours of incubation, the plates were read for MIC. SpectraMax iD5 microplate reader was used to measure turbidity at different time points. Turbidity (OD) increases as the bacteria grow over time.

[7] = test system: E. coli (ATCC 25922); assay: Broth microdilution MIC assay, E. coli; settings: for MIC: Escherichia coli
Method: as §2, §3, §4, §5, §6, §7, §8, §9

[8] = test system: S. aureus (ATCC 29213); assay: Broth microdilution MIC assay, S. aureus; settings: for MIC: Staphylococcus aureus
Method: as §2, §3, §4, §5, §6, §7, §8, §9

[9] = test system: E. faecalis (ATCC 29212); assay: Minimum bactericidal concentration (MBC) assay, E. faecalis; assay type: cell-based, Enterococcus faecalis
Method: as §1

[10] = test system: engineered Salmonella typhimurium strain (umuC, β-galactosidase); settings: S9 not stated
[11] = test system: VREF: E. faecalis resistant to vancomycin (ATCC 51299); assay: Broth microdilution MIC assay, VREF; settings: Enterococcus faecalis, ATCC51299, read-out: MIC (bacterial growth inhibition)
Method: as §2, §3, §4, §5, §6, §7, §8, §9

[12] = test system: E. faecalis (ATCC 29212); assay: Broth microdilution MIC assay, E. faecalis; settings: Enterococcus faecalis, ATCC29212, read-out: MIC (bacterial growth inhibition)
Method: as §2, §3, §4, §5, §6, §7, §8, §9

[13] = ATCC29213, 24 h, read-out: MBC (kills bacteria)
[14] = ATCC29213, read-out: MIC (bacterial growth inhibition), S. aureus, time not given
[15] = ATCC25922, read-out: MIC (bacterial growth inhibition), E. coli
[16] = ATCC29213, 24 h, read-out: MIC (bacterial growth inhibition), S. aureus, up to 24 hours

Question: What does the source list for `COc1ccc2c3c([nH]c2c1)C(CC(CC1=NCCc2c1[nH]c1cc(OC)ccc21)c1cncs1)=NCC3` [GK524]?
Answer: MBC [1, 13]: 65.5 µg/mL; MBC ([1]; ATCC29213, read-out: MBC (bactericidal activity)): 125 µM; MBC ([2]; read-out: MBC): 32.7 µg/mL; MBC ([2]; read-out: MRSA-MBC): 62.5 µM; MIC ([3]; after 24 hours of incubation): 12.2 µg/mL (≈ 23.4 µM); MIC ([3]; after 48 hours of incubation): 25 µg/mL (≈ 47.7 µM); solubility in DMSO (time to dissolve) [4]: instantly; bacteriostatic/bactericidal activity [5]: show bacteriostatic and bactericidal activity; MIC [6]: 16.4 µg/mL (≈ 31.2 µM); MIC (bacterial growth inhibition) ([7]; E. coli): No bacteriostatic or bactericidal activities were observed; MIC [8, 14]: 32.7 µg/mL (≈ 62.5 µM); higher efficacy than harmaline ([8]; antibacterial efficacy versus harmaline): ~15 fold; higher antibacterial activity than harmaline dimer without a substitution (GZ440/6) ([8]; versus GZ440/6): 1.75 fold

Question: For `COc1ccc2c3c([nH]c2c1)C(CC(CC1=NCCc2c1[nH]c1cc(OC)ccc21)c1c[nH]c2cccc([N+](=O)[O-])c12)=NCC3` [GK600], which MIC [6] is on record?
Answer: 2.75 µg/mL (≈ 4.58 µM)

Question: And the “MIC (bacterial growth inhibition)” value ([7]; E. coli)?
Answer: 6.25 µg/mL (≈ 10.4 µM)

Question: And the MIC [7, 15]?
Answer: 12.5 µg/mL (≈ 20.8 µM)

Question: What about the “MIC (bacterial growth inhibition)” value ([8]; S. aureus, time not given) of the same molecule?
Answer: 3.5 µg/mL (≈ 5.83 µM)

Question: And the MIC [8, 14]?
Answer: 3.1 µg/mL (≈ 5.16 µM)

Question: Which MBC [1, 13] does the source give for `COc1ccc2c3c([nH]c2c1)C(CC(CC1=NCCc2c1[nH]c1cc(OC)ccc21)c1ccncc1)=NCC3` [GK517.4] here?
Answer: 64.7 µg/mL

Question: What about the MBC ([2]; read-out: MBC) of the same molecule?
Answer: > 129 µg/mL

Question: And the MBC ([2]; read-out: MRSA-MBC)?
Answer: > 250 µM

Question: What about the MIC ([6]; 24 h) of the same molecule?
Answer: 64.7 µg/mL (≈ 125 µM)

Question: What about the “MIC (bacterial growth inhibition)” value ([7]; E. coli) of the same molecule?
Answer: no activity was observed

Question: What about the MIC [8, 16] of the same molecule?
Answer: 64.7 µg/mL (≈ 125 µM)

Question: Which MBC [1, 13] does the source give for `COc1ccc2c3c([nH]c2c1)C(CC(CC1=NCCc2c1[nH]c1cc(OC)ccc21)c1c[nH]c2ccc(C#N)cc12)=NCC3` [GK580, 3-(1,3-bis(7-methoxy-4,9-dihydro-3H-pyrido[3,4-b]indol-1-yl)propan-2-yl)-1H-indole-5-carbonitrile] here?
Answer: 11 µg/mL

Question: What about the MBC ([2]; read-out: MBC) of the same molecule?
Answer: 7 µg/mL

Question: What about the “MBC (kills bacteria)” value [9] of the same molecule?
Answer: > 88 µg/mL

Question: And the MIC ([3]; after 24 hours of incubation)?
Answer: 12.2 µg/mL (≈ 21.1 µM)

Question: And the MIC ([3]; after 48 hours of incubation)?
Answer: 12.2 µg/mL (≈ 21.1 µM)

Question: And the “concentration inhibiting fungal growth” value ([3]; time not stated)?
Answer: 12.5 µg/mL

Question: What about the “genotoxic concentration (no genotoxicity up to)” value [10] of the same molecule?
Answer: > 30 µg/mL

Question: What about the MIC [6] of the same molecule?
Answer: 3.5 µg/mL (≈ 6.03 µM)

Question: And the MIC [11]?
Answer: > 88 µg/mL

Question: What about the MIC [7, 15] of the same molecule?
Answer: 12.5 µg/mL (≈ 21.5 µM)

Question: And the “MIC (bacterial growth inhibition)” value ([8]; S. aureus, time not given)?
Answer: 3.5 µg/mL (≈ 6.03 µM)

Question: And the MIC [8, 14]?
Answer: 5.5 µg/mL (≈ 9.47 µM)

Question: What about the MIC [12] of the same molecule?
Answer: 44 µg/mL (≈ 75.8 µM)

Question: Which bacteriostatic/bactericidal activity [5] does the source give for `NC(=O)NCCc1c[nH]c2ccccc12` [Compound 203] here?
Answer: no bacteriostatic/bactericidal activity observed

Question: What does the source list for `COc1ccc2c3c([nH]c2c1)C(CC(CC1=NCCc2c1[nH]c1cc(OC)ccc21)c1ccccn1)=NCC3` [GK517.2]?
Answer: MBC [1, 13]: > 129 µg/mL; MBC ([2]; read-out: MBC): > 129 µg/mL; MBC ([2]; read-out: MRSA-MBC): > 250 µM; MIC ([6]; 24 h): 64.7 µg/mL (≈ 125 µM); MIC (bacterial growth inhibition) ([7]; E. coli): no activity was observed; MIC [8, 16]: 64.7 µg/mL (≈ 125 µM)

Question: For `COc1ccc2c3c([nH]c2c1)C(/C=C/c1cc(Cl)ccc1N)=NCC3` [GK350], which “concentration showing ~50% growth inhibition” value ([7]; E. coli) is on record?
Answer: 1.5 µg/mL

Question: And the MIC [8, 14]?
Answer: 25 µg/mL (≈ 71.1 µM)

Question: For `COc1ccc2c(CCNC(=O)CC(C)(C)CC(=O)NCCc3c[nH]c4cc(OC)ccc34)c[nH]c2c1` [504/6], which bacteriostatic/bactericidal activity [5] is on record?
Answer: no bacteriostatic/bactericidal activity observed

Question: Which “concentration at which activity is shown” value ([7]; E. coli) does the source give for `COc1ccc2c3c([nH]c2c1)C(CC(CC1=NCCc2c1[nH]c1cc(OC)ccc21)c1c[nH]c2ccc(C(=O)O)cc12)=NCC3` [GK599] here?
Answer: 100 µg/mL

Question: And the “concentration at which activity is shown” value ([8]; S. aureus)?
Answer: 6.25 µg/mL

Question: For `COc1ccc2c3c([nH]c2c1)C(C)=NCC3` [Harmaline, reference compound], which MIC ([7]; ATCC25922, read-out: MIC (bacterial growth inhibition)) is on record?
Answer: 707 µg/mL and 3300 µM

Question: What about the MIC ([8]; ATCC29213, read-out: MIC (bacterial growth inhibition)) of the same molecule?
Answer: 707 µg/mL and 3300 µM
